The values below come from publication PMC5218480 (PLoS ONE, 2017).

This test deals with MV-4-11 cells. The test can be described thus: Gene expression microarray analysis (Affymetrix PrimeView) and GSEA. The class given is cell-based, human. Further details: RFU PODN (11730768_x_at) / Fold change /veh PODN (11730768_x_at) / RFU LINC00158 (11744669_a_at) / Fold change /veh LINC00158 (11744669_a_at) / RFU DUSP10 (11751237_a_at) / Fold change /veh DUSP10 (11751237_a_at) / RFU ID3 (11757404_x_at) / Fold change /veh ID3 (11757404_x_at) / RFU PLEKHG5 (11737974_s_at) / Fold change /veh PLEKHG5 (11737974_s_at) / RFU LRRC4B (11730491_at) / Fold change /veh LRRC4B (11730491_at) / RFU GIMAP4 (11747438_a_at) / Fold change /veh GIMAP4 (11747438_a_at) / RFU KRT8 (11758183_x_at) / Fold change /veh KRT8 (11758183_x_at) / RFU CNN1 (11734310_a_at) / Fold change /veh CNN1 (11734310_a_at) / RFU VPS37D (11726825_at) / Fold change /veh VPS37D (11726825_at) / RFU C10orf10 (11716522_x_at) / Fold change /veh C10orf10 (11716522_x_at) / RFU KIR2DL2 /// KIR2DL4 /// KIR2DL5A /// KIR2DL5B /// KIR2DS1 /// KIR2DS2 /// KIR2DS3 /// KIR2DS4 /// KIR3DL3 /// KIR3DL3 /// KIR3DS1 (11738374_at) / Fold change /veh KIR2DL2 /// KIR2DL4 /// KIR2DL5A /// KIR2DL5B /// KIR2DS1 /// KIR2DS2 /// KIR2DS3 /// KIR2DS4 /// KIR3DL3 /// KIR3DL3 /// KIR3DS1 (11738374_at) / RFU C1QL1 (11718748_at) / Fold change /veh C1QL1 (11718748_at) / RFU TMPRSS4 (11747572_a_at) / Fold change /veh TMPRSS4 (11747572_a_at) / RFU HAMP (11756126_x_at) / Fold change /veh HAMP (11756126_x_at) / RFU RNFT2 (11725882_a_at) / Fold change /veh RNFT2 (11725882_a_at) / RFU NR4A2 (11747474_a_at) / Fold change /veh NR4A2 (11747474_a_at) / RFU ABCC12 (11746883_a_at) / Fold change /veh ABCC12 (11746883_a_at) / RFU TMEM136 (11760407_x_at) / Fold change /veh TMEM136 (11760407_x_at) / RFU CLDN22 /// WWC2 (11732394_at) / Fold change /veh CLDN22 /// WWC2 (11732394_at) / RFU HLA-DPB1 (11760878_x_at) / Fold change /veh HLA-DPB1 (11760878_x_at) / RFU SPINT1 (11716480_a_at) / Fold change /veh SPINT1 (11716480_a_at) / RFU GAP43 (11754022_s_at) / Fold change /veh GAP43 (11754022_s_at) / RFU A4GNT (11735810_at) / Fold change /veh A4GNT (11735810_at) / RFU PRB3 (11715151_x_at) / Fold change /veh PRB3 (11715151_x_at) / RFU TUBB4B (11761932_at) / Fold change /veh TUBB4B (11761932_at) / RFU CAPN14 (11732068_a_at) / Fold change /veh CAPN14 (11732068_a_at) / RFU TMCC2 (11721928_a_at) / Fold change /veh TMCC2 (11721928_a_at) / RFU IRGQ (11745062_a_at) / Fold change /veh IRGQ (11745062_a_at) / RFU FAM174B (11720279_a_at) / Fold change /veh FAM174B (11720279_a_at) / RFU TMPRSS4 (11748680_a_at) / Fold change /veh TMPRSS4 (11748680_a_at) / RFU FAM212B (11763350_a_at) / Fold change /veh FAM212B (11763350_a_at) / RFU PLEKHG5 (11743358_a_at) / Fold change /veh PLEKHG5 (11743358_a_at) / RFU ZSCAN30 (11745921_a_at) / Fold change /veh ZSCAN30 (11745921_a_at) / RFU CMKLR1 (11741424_a_at) / Fold change /veh CMKLR1 (11741424_a_at) / RFU LOC101060620 /// MAPK8IP1 (11723275_at) / Fold change /veh LOC101060620 /// MAPK8IP1 (11723275_at) / RFU SPTSSB (11747773_x_at) / Fold change /veh SPTSSB (11747773_x_at) / RFU PRSS12 (11739890_at) / Fold change /veh PRSS12 (11739890_at) / RFU BIN1 (11741810_x_at) / Fold change /veh BIN1 (11741810_x_at) / RFU WNT11 (11732464_a_at) / Fold change /veh WNT11 (11732464_a_at) / RFU C10orf10 (11716521_a_at) / Fold change /veh C10orf10 (11716521_a_at) / RFU C5orf56 (11738089_at) / Fold change /veh C5orf56 (11738089_at) / RFU CYB561 (11721691_x_at) / Fold change /veh CYB561 (11721691_x_at) / RFU ANKRD19P (11752326_a_at) / Fold change /veh ANKRD19P (11752326_a_at) / RFU OR2T12 /// OR2T33 /// OR2T8 (11738714_s_at) / Fold change /veh OR2T12 /// OR2T33 /// OR2T8 (11738714_s_at) / RFU VCAN (11748164_a_at) / Fold change /veh VCAN (11748164_a_at) / RFU JSRP1 (11732532_at) / Fold change /veh JSRP1 (11732532_at) / RFU KRTAP10-11 (11738290_x_at) / Fold change /veh KRTAP10-11 (11738290_x_at) / RFU MYO3A (11730013_a_at) / Fold change /veh MYO3A (11730013_a_at) / RFU EBF3 (11725865_a_at) / Fold change /veh EBF3 (11725865_a_at) / RFU CAMK2N1 (11719241_x_at) / Fold change /veh CAMK2N1 (11719241_x_at) / RFU C5orf56 (11738088_a_at) / Fold change /veh C5orf56 (11738088_a_at) / RFU OLFML3 (11715873_a_at) / Fold change /veh OLFML3 (11715873_a_at) / RFU LOC100653217 /// NTM (11731650_a_at) / Fold change /veh LOC100653217 /// NTM (11731650_a_at) / RFU MAPK11 (11762145_a_at) / Fold change /veh MAPK11 (11762145_a_at) / RFU FIZ1 (11724087_x_at) / Fold change /veh FIZ1 (11724087_x_at) / RFU OASL (11726364_x_at) / Fold change /veh OASL (11726364_x_at) / RFU SOX15 (11748057_x_at) / Fold change /veh SOX15 (11748057_x_at) / RFU CD79A (11719716_a_at) / Fold change /veh CD79A (11719716_a_at) / RFU HIST1H1D (11736915_at) / Fold change /veh HIST1H1D (11736915_at) / RFU CASKIN2 (11723855_a_at) / Fold change /veh CASKIN2 (11723855_a_at) / RFU LOC730098 (11760151_x_at) / Fold change /veh LOC730098 (11760151_x_at) / RFU OR4N2 (11742367_at) / Fold change /veh OR4N2 (11742367_at) / RFU PRRT2 (11749266_a_at) / Fold change /veh PRRT2 (11749266_a_at) / RFU SNX32 (11753110_a_at) / Fold change /veh SNX32 (11753110_a_at) / RFU CDHR5 (11726645_a_at) / Fold change /veh CDHR5 (11726645_a_at) / RFU RCAN1 (11760418_a_at) / Fold change /veh RCAN1 (11760418_a_at) / RFU FAM167A (11723789_a_at) / Fold change /veh FAM167A (11723789_a_at) / RFU FAM26E (11764081_at) / Fold change /veh FAM26E (11764081_at) / RFU ISYNA1 (11749810_s_at) / Fold change /veh ISYNA1 (11749810_s_at) / RFU ACY1 (11761880_at) / Fold change /veh ACY1 (11761880_at) / RFU 11764098_at / Fold change /veh 11764098_at / RFU SAMD14 (11745864_x_at) / Fold change /veh SAMD14 (11745864_x_at) / RFU NPB (11741838_a_at) / Fold change /veh NPB (11741838_a_at) / RFU TMPRSS6 (11731388_a_at) / Fold change /veh TMPRSS6 (11731388_a_at) / RFU KRTAP10-2 (11738614_at) / Fold change /veh KRTAP10-2 (11738614_at) / RFU ARHGAP8 /// PRR5-ARHGAP8 (11727945_x_at) / Fold change /veh ARHGAP8 /// PRR5-ARHGAP8 (11727945_x_at) / RFU KRTAP5-7 /// NADSYN1 (11734609_at) / Fold change /veh KRTAP5-7 /// NADSYN1 (11734609_at) / RFU RASL12 (11751679_a_at) / Fold change /veh RASL12 (11751679_a_at) / RFU CDKN2B (11736163_a_at) / Fold change /veh CDKN2B (11736163_a_at) / RFU PRF1 (11729649_at) / Fold change /veh PRF1 (11729649_at) / RFU, ZNF638 /// ZNF638-IT1 / Fold change vs veh, ZNF638 /// ZNF638-IT1 / RFU, PANK3 / Fold change vs veh, PANK3 / RFU, SH3YL1 / Fold change vs veh, SH3YL1 / RFU, ZEB2 / Fold change vs veh, ZEB2 / RFU, NRIP1 / Fold change vs veh, NRIP1 / RFU, PTTG1IP / Fold change vs veh, PTTG1IP / RFU, CAPN2 / Fold change vs veh, CAPN2 / RFU, MED14 / Fold change vs veh, MED14 / RFU, SNORA58 / Fold change vs veh, SNORA58 / RFU, C1orf63 / Fold change vs veh, C1orf63 / RFU, LRRFIP1 / Fold change vs veh, LRRFIP1 / RFU, NDUFAF7 / Fold change vs veh, NDUFAF7 / RFU, SLC12A2 / Fold change vs veh, SLC12A2 / RFU, IBTK / Fold change vs veh, IBTK / RFU, ESF1 / Fold change vs veh, ESF1 / Fold change vs veh, TMEM50B / RFU, TAOK1 / Fold change vs veh, TAOK1 / RFU, ACBD3 / Fold change vs veh, ACBD3 / RFU, TMA16 / Fold change vs veh, TMA16 / RFU, RWDD3 / Fold change vs veh, RWDD3 / RFU, BCAT1 / Fold change vs veh, BCAT1 / RFU, EDEM3 / Fold change vs veh, EDEM3 / RFU, TMEM33 / Fold change vs veh, TMEM33 / RFU, WDR75 / Fold change vs veh, WDR75 / RFU, AHCTF1 / Fold change vs veh, AHCTF1 / RFU, TFRC / Fold change vs veh, TFRC / RFU, ZDHHC17 / Fold change vs veh, ZDHHC17 / RFU, NOM1 / Fold change vs veh, NOM1 / RFU, ARL8B / Fold change vs veh, ARL8B / RFU, ZBTB11 / Fold change vs veh, ZBTB11 / RFU, TAMM41 / Fold change vs veh, TAMM41 / RFU, KIAA1704 /// LOC100996395 / Fold change vs veh, KIAA1704 /// LOC100996395 / RFU, ING1 / Fold change vs veh, ING1 / RFU, TRMT61B / Fold change vs veh, TRMT61B / RFU, FUBP3 / Fold change vs veh, FUBP3 / RFU, TP53 / Fold change vs veh, TP53 / RFU, TNKS2 / Fold change vs veh, TNKS2 / RFU, ZFP14 / Fold change vs veh, ZFP14 / RFU, ACTR2 / Fold change vs veh, ACTR2 / RFU, PPP3R1 / Fold change vs veh, PPP3R1 / RFU, PIK3R1 / Fold change vs veh, PIK3R1 / RFU, HNRNPA1 / Fold change vs veh, HNRNPA1 / RFU, RNF170 / Fold change vs veh, RNF170 / RFU, ZNF28 / Fold change vs veh, ZNF28 / RFU, RNGTT / Fold change vs veh, RNGTT / RFU, OGT / Fold change vs veh, OGT / RFU, BRD1 / Fold change vs veh, BRD1 / RFU, MARS / Fold change vs veh, MARS / RFU, ZNF655 / Fold change vs veh, ZNF655 / RFU, FAHD1 / Fold change vs veh, FAHD1 / RFU, BDP1 / Fold change vs veh, BDP1 / RFU, LRRCC1 / Fold change vs veh, LRRCC1 / RFU, ARID1A / Fold change vs veh, ARID1A / RFU, ZNF146 / Fold change vs veh, ZNF146 / RFU, ZNF330 / Fold change vs veh, ZNF330 / RFU, GPN3 / Fold change vs veh, GPN3 / RFU, C9orf123 / Fold change vs veh, C9orf123 / RFU, N4BP2L2 / Fold change vs veh, N4BP2L2 / RFU, ARFIP1 / Fold change vs veh, ARFIP1 / RFU, FAM179B / Fold change vs veh, FAM179B / RFU, BCL10 / Fold change vs veh, BCL10 / RFU, UHRF1BP1L / Fold change vs veh, UHRF1BP1L / RFU, BET1 / Fold change vs veh, BET1 / RFU, CNOT2 / Fold change vs veh, CNOT2 / RFU, ZNF268 / Fold change vs veh, ZNF268 / Fold change vs veh, ZNF507 / RFU, DGCR2 / Fold change vs veh, DGCR2 / RFU, WDSUB1 / Fold change vs veh, WDSUB1 / Fold change vs veh, HSP90B1 /// MIR3652 / RFU, ADSS / Fold change vs veh, ADSS / RFU, GK / Fold change vs veh, GK / RFU, ZNF148 / Fold change vs veh, ZNF148 / RFU, TAF9 / Fold change vs veh, TAF9 / RFU, SLC1A5 / Fold change vs veh, SLC1A5 / RFU, SLMO2 / Fold change vs veh, SLMO2 / RFU, ABCC4 / Fold change vs veh, ABCC4 / RFU, LOC101060439 /// RAP1B / Fold change vs veh, LOC101060439 /// RAP1B / RFU, RFX7 / Fold change vs veh, RFX7 / RFU, GTPBP10 / Fold change vs veh, GTPBP10 / RFU, CNEP1R1 / Fold change vs veh, CNEP1R1 / RFU, BIVM-ERCC5 /// ERCC5 / Fold change vs veh, BIVM-ERCC5 /// ERCC5 / RFU, ILF3 / Fold change vs veh, ILF3 / RFU 11762660_at / Fold change /veh 11762660_at / RFU VCAN (11757783_s_at) / Fold change /veh VCAN (11757783_s_at) / RFU DDX43 (11728927_at) / Fold change /veh DDX43 (11728927_at) / RFU KRT8 (11758188_x_at) / Fold change /veh KRT8 (11758188_x_at) / RFU NKD1 (11759106_at) / Fold change /veh NKD1 (11759106_at) / RFU SRD5A1 (11742802_a_at) / Fold change /veh SRD5A1 (11742802_a_at) / RFU TPSAB1 /// TPSB2 (11721975_s_at) / Fold change /veh TPSAB1 /// TPSB2 (11721975_s_at) / RFU GSTM3 (11746129_a_at) / Fold change /veh GSTM3 (11746129_a_at) / RFU IL23R (11737362_x_at) / Fold change /veh IL23R (11737362_x_at) / RFU TMEM51 (11727254_a_at) / Fold change /veh TMEM51 (11727254_a_at) / RFU PIWIL2 (11732686_x_at) / Fold change /veh PIWIL2 (11732686_x_at) / RFU ORM1 (11744905_x_at) / Fold change /veh ORM1 (11744905_x_at) / RFU CCDC152 (11743942_at) / Fold change /veh CCDC152 (11743942_at) / RFU ECM1 (11717891_a_at) / Fold change /veh ECM1 (11717891_a_at) / RFU IL23R (11748794_a_at) / Fold change /veh IL23R (11748794_a_at) / RFU TNFAIP8L3 (11732012_x_at) / Fold change /veh TNFAIP8L3 (11732012_x_at) / RFU MBOAT4 (11741988_at) / Fold change /veh MBOAT4 (11741988_at) / RFU 11764193_at / Fold change /veh 11764193_at / RFU TMEM53 (11763286_at) / Fold change /veh TMEM53 (11763286_at) / RFU MAGEB2 (11727129_at) / Fold change /veh MAGEB2 (11727129_at) / RFU TMEM200A (11744735_a_at) / Fold change /veh TMEM200A (11744735_a_at) / RFU CCDC152 (11751479_a_at) / Fold change /veh CCDC152 (11751479_a_at) / RFU FAM211A (11726209_a_at) / Fold change /veh FAM211A (11726209_a_at) / RFU RGS16 (11746705_a_at) / Fold change /veh RGS16 (11746705_a_at) / RFU VCAN (11755009_s_at) / Fold change /veh VCAN (11755009_s_at) / RFU RHOB (11743442_s_at) / Fold change /veh RHOB (11743442_s_at) / RFU RGS16 (11720943_a_at) / Fold change /veh RGS16 (11720943_a_at) / RFU RGS16 (11720944_at) / Fold change /veh RGS16 (11720944_at) / RFU, VPS4B / Fold change vs veh, VPS4B / RFU, CREB1 / Fold change vs veh, CREB1 / RFU, DNAJC13 / Fold change vs veh, DNAJC13 / RFU, GNAQ / Fold change vs veh, GNAQ / RFU, CDK5R1 / Fold change vs veh, CDK5R1 / RFU, ZRANB3 / Fold change vs veh, ZRANB3 / RFU, CUL4A / Fold change vs veh, CUL4A / RFU, CCNY / Fold change vs veh, CCNY / RFU, UFL1 / Fold change vs veh, UFL1 / RFU, COG3 / Fold change vs veh, COG3 / RFU, DIAPH2 / Fold change vs veh, DIAPH2 / RFU, SKA2 / Fold change vs veh, SKA2 / RFU, AFF3 / Fold change vs veh, AFF3 / RFU, LMF1 / Fold change vs veh, LMF1 / RFU, IPO11 / Fold change vs veh, IPO11 / RFU, DFFB / Fold change vs veh, DFFB / RFU, FOXP1 / Fold change vs veh, FOXP1 / RFU, CARD8 / Fold change vs veh, CARD8 / RFU, STRN3 / Fold change vs veh, STRN3 / RFU, ADK / Fold change vs veh, ADK / RFU, RASSF2 / Fold change vs veh, RASSF2 / RFU, WIPF1 / Fold change vs veh, WIPF1 / RFU, LARP1B / Fold change vs veh, LARP1B / RFU, RASA1 / Fold change vs veh, RASA1 / RFU, RB1 / Fold change vs veh, RB1 / RFU, PPFIA1 / Fold change vs veh, PPFIA1 / RFU, MAT2A / Fold change vs veh, MAT2A / RFU, CCT5 / Fold change vs veh, CCT5 / RFU, WDR92 / Fold change vs veh, WDR92 / RFU, CUX1 / Fold change vs veh, CUX1 / RFU, TTC7A / Fold change vs veh, TTC7A / RFU, TMEM135 / Fold change vs veh, TMEM135 / RFU, DEPTOR / Fold change vs veh, DEPTOR / RFU, CPM / Fold change vs veh, CPM / RFU, DNAJB6 / Fold change vs veh, DNAJB6 / RFU, CACNA2D3 / Fold change vs veh, CACNA2D3 / RFU, DTX4 / Fold change vs veh, DTX4 / RFU, TFCP2 / Fold change vs veh, TFCP2 / RFU, GMCL1 /// GMCL1P1 / Fold change vs veh, GMCL1 /// GMCL1P1 / RFU, AEBP2 / Fold change vs veh, AEBP2 / RFU, SNHG1 /// SNORD22 /// SNORD25 /// SNORD26 /// SNORD27 /// SNORD28 /// SNORD29 /// SNORD31 / Fold change vs veh, SNHG1 /// SNORD22 /// SNORD25 /// SNORD26 /// SNORD27 /// SNORD28 /// SNORD29 /// SNORD31 / Fold change (Aza/veh), C12orf56 (ProbeSet 11735607_a_at) / Fold change (ACY-1035/veh), C12orf56 (ProbeSet 11735607_a_at) / Fold change (Aza/veh), FGFR1OP (ProbeSet 11751329_s_at) / Fold change (ACY-1035/veh), FGFR1OP (ProbeSet 11751329_s_at) / Fold change (Aza/veh), VPS36 (ProbeSet 11739960_a_at) / Fold change (ACY-1035/veh), VPS36 (ProbeSet 11739960_a_at) / RFU SYPL1 (11715823_x_at) / Fold change /veh SYPL1 (11715823_x_at) / RFU IGFBP7 (11715501_s_at) / Fold change /veh IGFBP7 (11715501_s_at) / RFU REEP3 (11722064_at) / Fold change /veh REEP3 (11722064_at) / RFU IGLL1 (11728026_x_at) / Fold change /veh IGLL1 (11728026_x_at): dose or concentration left out as unconfirmed. The following applies: ProbeSet 11725787_a_at; LIST B.

Take `Nc1ccc(-c2cccs2)cc1NC(=O)c1ccc2c(c1)cc(C1CC1)n2CCN1CCOCC1` [ACY-1035]: the “Fold change vs veh, TMA16” value worked out at 0.86.
